Holding throughout (assay type): binding
The target in experiment [1] is T1, ADORA1 (Homo sapiens, UniProt P30542).
T1 construct: purchased Promega (in-house HiBiT-GPCR construct library, NanoBRET)
T1 sequence (P30542 1-326): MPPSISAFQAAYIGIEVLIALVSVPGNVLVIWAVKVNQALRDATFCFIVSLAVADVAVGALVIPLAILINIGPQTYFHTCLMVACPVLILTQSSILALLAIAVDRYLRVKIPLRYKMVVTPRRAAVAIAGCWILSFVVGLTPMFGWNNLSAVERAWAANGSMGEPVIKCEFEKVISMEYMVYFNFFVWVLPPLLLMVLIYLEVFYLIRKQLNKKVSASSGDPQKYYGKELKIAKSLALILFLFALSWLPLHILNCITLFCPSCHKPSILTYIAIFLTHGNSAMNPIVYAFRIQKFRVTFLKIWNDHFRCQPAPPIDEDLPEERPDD
In words: NanoBRET screen HiBiT-ADORA1 in HEK293. On the procedure: (§1) Each tracer candidate was screened across the entire library of HiBiT-GPCR constructs using NanoBRET as the detection modality. As depicted in Figure 4A, the specificity of interactions was evaluated through decrease in BRET due to competitive displacement of a bound tracer by excess parental compound. Each tracer was analyzed for binding to each HiBiT-GPCR fusion in the absence and in the presence of competing parental compound. Briefly, HEK293 cells were transfected with HiBiT-GPCR constructs diluted into promoterless DNA to reduce expression and maximize translocation to the cell surface. Each tracer candidate was then screened at concentrations of 1 μM and 0.1 μM across cells expressing these fusions. Cells were treated for 1.5 h with tracer either alone or in the presence of 20 μM competing parental compound (i.e., control). BRET was measured upon addition of purified LgBiT and subsequent complementation with HiBiT genetically fused to a GPCR. The specificity of interactions was assessed through a decrease in BRET signal due to competitive displacement of the bound tracer. To further gauge the robustness of these interactions, the fold response over the control (i.e., BRETtracer/BRETcontrol) was calculated. We chose a 1.5-fold response, which translates to ≥7-fold signal over noise as the minimal threshold required to score an interaction as positive. […]. Below we highlight the screening results obtained for our exemplary fluorescent tracers based on Clozapine, Amitriptyline and AZD1283.
(§2) HiBiT-GPCR DNA constructs were diluted in 10 mM Tris pH 8 to a final concentration of 0.01 μg/μL, arrayed in 96-well plates and stored at −20 °C. For transfection, HEK293 cells were suspended in Opti-MEM (without phenol red) supplemented with 2% fetal bovine serum (Seradigm) and 100 units/mL penicillin–streptomycin (Gibco) at a final concentration of 220,000 cells/mL and dispensed into white 96-well plates at 90 μL/well. Subsequent transfections and screens were carried using an Agilent Bravo Automated Liquid Handling Platform. First, the 96-well HiBiT DNA arrays were diluted 25-fold in Opti-MEM (without serum or phenol red) to a final concentration of 0.0004 μg/μL and 20 μL of the diluted DNAs were transferred into new 96-well plates. Next, promoterless carrier DNA (1 μg/μL) was diluted 25-fold (0.04 μg/μL) and then dispensed into the diluted arrays at 20 μL/well. Following brief mixing, Viafect transfection reagent (Promega) diluted 16-fold into Opti-MEM was dispensed into the plates at 40 μL/well. After mixing by pipetting, plates were incubated for 10 min on the pipetting station deck. The DNA-transfection reagent complexes were then added to plates containing cells. To facilitate the screen, 10 μL of DNA-transfection reagent complexes were added in duplicates to the top 4 and bottom 4 rows, resulting in two identical 48-well arrays per plate. Plates with transfected cells were incubated for 18–20 h at 37 °C/5% CO2. A screen of each tracer across the entire library using two different concentrations requires duplicate plates of transfected cells. Depending on the number of tracers being screened, transfections can be scaled up using the same ratios. The next day, for each tracer, four 20× screening solutions in tracer dilution buffer (Promega) were prepared: two duplicates at final concentration of 20 μM and two duplicates at a final concentration of 2 μM. A competing unmodified compound was added to one of each duplicate at a final concentration of 400 μM. The four resulting solutions were diluted 4-fold in Opti-MEM without serum or phenol red to generate 5× solutions (5 µM and 0.5 µM tracer +/− 100 μM competing compound). To screen the library, a BioTek MultiFlo FX liquid dispenser was used to dispense 22.5 µL of tracer solution to the top 4 rows and 22.5 µL tracer + competing compound solution to the 4 bottom rows. Plates were briefly mixed on an orbital shaker and incubated for 1.5 h at room temperature. […]
(BRET reads energy transfer from a luciferase to a nearby fluorophore.)

Experiment [2] concerns the target T2, PDGFRB (Homo sapiens, UniProt P09619).
T2 construct: purchased Promega (in-house HiBiT-GPCR construct library, NanoBRET)
In words: NanoBRET screen HiBiT-PDGFRB in HEK293. As to the method: as §1, §2

Experiment [3] has as its target T3, P2RY14 (Homo sapiens, UniProt Q15391).
T3 construct: purchased Promega (in-house HiBiT-GPCR construct library, NanoBRET)
T3 sequence (Q15391 1-338): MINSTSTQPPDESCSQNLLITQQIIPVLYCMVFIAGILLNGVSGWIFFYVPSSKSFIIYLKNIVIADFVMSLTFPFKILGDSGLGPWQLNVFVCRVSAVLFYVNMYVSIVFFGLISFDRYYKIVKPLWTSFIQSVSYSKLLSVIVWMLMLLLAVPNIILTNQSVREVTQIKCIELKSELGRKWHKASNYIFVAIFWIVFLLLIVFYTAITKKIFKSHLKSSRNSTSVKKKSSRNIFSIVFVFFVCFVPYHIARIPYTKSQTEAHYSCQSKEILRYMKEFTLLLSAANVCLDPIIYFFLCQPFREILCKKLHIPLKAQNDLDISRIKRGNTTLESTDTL
In words: NanoBRET screen HiBiT-P2RY14 in HEK293. As to the method:
as §1, §2

In experiment [4] the target is T4, LHCGR (Homo sapiens, UniProt P22888).
T4 construct: purchased Promega (in-house HiBiT-GPCR construct library, NanoBRET)
In words: NanoBRET screen HiBiT-LHCGR in HEK293. As to the method:
as §1, §2

Experiment [5] addresses T5, XCR1 (Homo sapiens, UniProt P46094).
T5 construct: purchased Promega (in-house HiBiT-GPCR construct library, NanoBRET)
T5 sequence (P46094 1-333): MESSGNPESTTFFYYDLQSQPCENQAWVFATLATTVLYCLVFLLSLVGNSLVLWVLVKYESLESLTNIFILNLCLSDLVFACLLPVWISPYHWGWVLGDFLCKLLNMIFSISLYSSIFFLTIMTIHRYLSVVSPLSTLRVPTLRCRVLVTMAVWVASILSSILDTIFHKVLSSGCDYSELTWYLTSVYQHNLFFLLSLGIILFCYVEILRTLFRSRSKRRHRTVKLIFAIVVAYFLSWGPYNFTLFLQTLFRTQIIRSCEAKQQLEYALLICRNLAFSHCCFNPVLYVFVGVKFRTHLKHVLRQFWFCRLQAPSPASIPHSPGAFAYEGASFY
In words: NanoBRET screen HiBiT-XCR1 in HEK293. On the procedure:
as §1, §2

T2 sequence (P09619 33-1106): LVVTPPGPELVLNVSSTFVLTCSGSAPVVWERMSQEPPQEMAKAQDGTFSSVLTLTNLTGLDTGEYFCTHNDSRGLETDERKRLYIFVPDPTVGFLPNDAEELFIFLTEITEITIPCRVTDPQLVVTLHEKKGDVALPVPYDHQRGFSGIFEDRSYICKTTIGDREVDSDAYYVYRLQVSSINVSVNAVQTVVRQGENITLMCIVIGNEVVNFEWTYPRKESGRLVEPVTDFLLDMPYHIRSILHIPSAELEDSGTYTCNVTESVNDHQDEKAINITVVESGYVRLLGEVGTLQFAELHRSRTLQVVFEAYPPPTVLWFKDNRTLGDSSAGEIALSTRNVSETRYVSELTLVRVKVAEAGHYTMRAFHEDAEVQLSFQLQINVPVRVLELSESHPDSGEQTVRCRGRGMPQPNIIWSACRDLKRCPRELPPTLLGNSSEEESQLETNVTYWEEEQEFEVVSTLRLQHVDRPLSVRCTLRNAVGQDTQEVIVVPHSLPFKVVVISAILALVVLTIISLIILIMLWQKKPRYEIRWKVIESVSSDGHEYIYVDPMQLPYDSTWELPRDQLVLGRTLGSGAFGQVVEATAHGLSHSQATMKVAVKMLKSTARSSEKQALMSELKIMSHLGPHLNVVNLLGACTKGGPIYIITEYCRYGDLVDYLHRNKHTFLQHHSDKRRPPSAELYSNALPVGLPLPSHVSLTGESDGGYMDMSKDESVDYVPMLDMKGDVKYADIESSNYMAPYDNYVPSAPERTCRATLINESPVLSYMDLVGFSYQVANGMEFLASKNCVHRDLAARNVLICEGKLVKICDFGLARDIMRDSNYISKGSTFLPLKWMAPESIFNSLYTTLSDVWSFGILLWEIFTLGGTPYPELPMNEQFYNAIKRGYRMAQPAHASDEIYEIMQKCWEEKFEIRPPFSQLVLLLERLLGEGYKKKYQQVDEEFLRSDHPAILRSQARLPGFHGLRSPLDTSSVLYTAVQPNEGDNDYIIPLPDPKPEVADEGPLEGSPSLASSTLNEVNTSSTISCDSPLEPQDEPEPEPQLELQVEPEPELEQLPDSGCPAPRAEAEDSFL
T4 sequence (P22888 27-699): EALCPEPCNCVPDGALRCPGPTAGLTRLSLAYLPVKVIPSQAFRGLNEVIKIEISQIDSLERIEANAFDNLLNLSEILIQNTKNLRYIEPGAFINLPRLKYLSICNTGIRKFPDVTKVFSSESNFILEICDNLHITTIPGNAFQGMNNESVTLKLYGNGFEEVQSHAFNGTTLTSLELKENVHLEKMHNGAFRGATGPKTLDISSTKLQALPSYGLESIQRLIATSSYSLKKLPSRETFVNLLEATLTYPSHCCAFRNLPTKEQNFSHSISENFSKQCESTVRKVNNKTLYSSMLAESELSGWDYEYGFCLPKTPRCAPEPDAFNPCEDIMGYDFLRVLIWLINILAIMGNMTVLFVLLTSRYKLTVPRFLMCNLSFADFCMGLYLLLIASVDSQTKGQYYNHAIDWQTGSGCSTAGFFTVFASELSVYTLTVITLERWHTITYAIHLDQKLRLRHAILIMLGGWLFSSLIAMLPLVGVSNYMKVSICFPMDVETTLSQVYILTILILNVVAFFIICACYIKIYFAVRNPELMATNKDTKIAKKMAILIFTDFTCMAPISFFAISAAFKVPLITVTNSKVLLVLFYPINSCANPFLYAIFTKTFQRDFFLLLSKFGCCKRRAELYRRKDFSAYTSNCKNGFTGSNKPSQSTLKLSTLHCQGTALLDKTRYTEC

As to `O=C(CCc1ccc2n1[B-](F)(F)[N+]1=C(c3ccc[nH]3)C=CC1=C2)NCc1ccc(C(=O)NCCOCCC(=O)N[C@@H]2CC[C@@]3(O)[C@H]4Cc5ccc(O)c6c5[C@@]3(CCN4CC3CC3)[C@H]2O6)cc1` [Naltrexone-3-NB590], the “NanoBRET Fold Response” value turned out to be 0.84 in experiment [1] (ADORA1, tracer 0.1μM); 1.23 in experiment [1] (ADORA1, tracer 1μM); 0.24 in experiment [2] (PDGFRB, tracer 0.1μM); 0.95 in experiment [2] (PDGFRB, tracer 1μM); 0.95 in experiment [3] (P2RY14, tracer 0.1μM); 1.00 in experiment [3] (P2RY14, tracer 1μM). Besides, the “NanoBRET Fold Response” value was 0.89 in experiment [4] (LHCGR, tracer 0.1μM); 1.12 in experiment [4] (LHCGR, tracer 1μM); 0.97 in experiment [5] (XCR1, tracer 0.1μM); 0.61 in experiment [5] (XCR1, tracer 1μM).

For `CN1CCN(C2=Nc3cc(Cl)ccc3N(CC(=O)NCCOCCOCCOCCOCCNC(=O)CCc3ccc4n3[B-](F)(F)[N+]3=C(c5ccc[nH]5)C=CC3=C4)c3ccccc32)CC1` [Clozapine-c-2-NB590], the “NanoBRET Fold Response” value in experiment [1] (ADORA1, 0.1μM tracer) was found to be 1.00; in experiment [1] (ADORA1, 1μM tracer), 0.87; in experiment [2] (PDGFRB, 0.1μM tracer), 1.00; in experiment [2] (PDGFRB, 1μM tracer), 0.87; in experiment [3] (P2RY14, 0.1μM tracer) it was 0.96; in experiment [3] (P2RY14, 1μM tracer), 0.89. The “NanoBRET Fold Response” value in experiment [4] (LHCGR, 0.1μM tracer) came to 1.05; in experiment [4] (LHCGR, 1μM tracer) it was 1.07; in experiment [5] (XCR1, 0.1μM tracer), 0.99; in experiment [5] (XCR1, 1μM tracer), 1.03.

On to `O=C(CCOCCOCCOCCOCCNC(=O)CCc1ccc2n1[B-](F)(F)[N+]1=C(c3ccc[nH]3)C=CC1=C2)NCCCN1CCN(C2=Nc3cc(Cl)ccc3Nc3ccccc32)CC1` [Clozapine-a-2-NB590], for which the “NanoBRET Fold Response” value in experiment [1] (ADORA1, 0.1μM tracer) came out at 1.00; in experiment [1] (ADORA1, 1μM tracer), 1.01; in experiment [2] (PDGFRB, 0.1μM tracer), 1.09; in experiment [2] (PDGFRB, 1μM tracer), 0.88; in experiment [3] (P2RY14, 0.1μM tracer) it was 1.07; in experiment [3] (P2RY14, 1μM tracer), 0.84. The “NanoBRET Fold Response” value in experiment [4] (LHCGR, 0.1μM tracer) turned out to be 0.93; in experiment [4] (LHCGR, 1μM tracer), 1.05; in experiment [5] (XCR1, 0.1μM tracer), 1.01; in experiment [5] (XCR1, 1μM tracer), 0.98.

Take `CCOC(=O)c1cc(C#N)c(N2CCC(C(=O)NS(=O)(=O)Cc3ccccc3/C=C/C(=O)NCCNC(=O)CCc3ccc4n3[B-](F)(F)[N+]3=C(c5ccc[nH]5)C=CC3=C4)CC2)nc1C` [AZD1283-1-NB590]: the “NanoBRET Fold Response” value in experiment [1] (ADORA1, 0.1μM) is reported as 1.18; in experiment [1] (ADORA1, 1μM) it was 1.07; in experiment [2] (PDGFRB, 0.1μM), 1.10; in experiment [2] (PDGFRB, 1μM), 1.16; in experiment [3] (P2RY14, 0.1μM), 1.14; in experiment [3] (P2RY14, 1μM), 1.18. The “NanoBRET Fold Response” value is 1.00 in experiment [4] (LHCGR, 0.1μM); 1.02 in experiment [4] (LHCGR, 1μM); 1.04 in experiment [5] (XCR1, 0.1μM); 1.00 in experiment [5] (XCR1, 1μM).

With `COc1ccc2[nH]c(-c3ccc(CNC(=O)CCOCCOCCOCCOCCNC(=O)CCc4ccc5n4[B-](F)(F)[N+]4=C(c6ccc[nH]6)C=CC4=C5)cc3)c(CCNC(C)=O)c2n1` [AzomelatoninICO9-2-NB590], the “NanoBRET Fold Response” value in experiment [1] (0.1μM tracer) is listed as 0.91; in experiment [1] (1μM tracer) it was 0.94; in experiment [2] (0.1μM tracer) it was 0.80; in experiment [2] (1μM tracer), 1.04; in experiment [3] (0.1μM tracer) it was 1.21; in experiment [3] (1μM tracer), 1.13. Also, the “NanoBRET Fold Response” value in experiment [4] (0.1μM tracer) is reported as 1.01; in experiment [4] (1μM tracer), 0.88; in experiment [5] (0.1μM tracer), 0.42; in experiment [5] (1μM tracer), 0.90.

`CCCn1c(=O)c2[nH]c(-c3ccc(OCC(=O)NCCNC(=O)CCOCCNC(=O)c4ccc(CNC(=O)CCc5ccc6n5[B-](F)(F)[N+]5=C(c7ccc[nH]7)C=CC5=C6)cc4)cc3)nc2n(CCC)c1=O` [XAC-3-NB590]: the “NanoBRET Fold Response” value came out at 10.95 in experiment [1] (ADORA1, tracer 0.1μM); 7.99 in experiment [1] (ADORA1, tracer 1μM); 0.76 in experiment [2] (PDGFRB, tracer 0.1μM); 0.79 in experiment [2] (PDGFRB, tracer 1μM); 0.59 in experiment [3] (P2RY14, tracer 0.1μM); 1.36 in experiment [3] (P2RY14, tracer 1μM). Further, the “NanoBRET Fold Response” value stood at 1.01 in experiment [4] (LHCGR, tracer 0.1μM); 1.00 in experiment [4] (LHCGR, tracer 1μM); 0.87 in experiment [5] (XCR1, tracer 0.1μM); 0.98 in experiment [5] (XCR1, tracer 1μM).

In the case of `CN(CCC=C1c2ccccc2CCc2ccccc21)C(=O)CCOCCOCCOCCOCCNC(=O)CCc1ccc2n1[B-](F)(F)[N+]1=C(c3ccc[nH]3)C=CC1=C2` [Amitriptyline-e-2-NB590], the “NanoBRET Fold Response” value in experiment [1] (tracer at 1μM) amounted to 1.08; in experiment [2] (tracer at 1μM), 1.04; in experiment [3] (tracer at 1μM), 1.03; in experiment [5] (tracer at 1μM), 0.99.

With `CN(C)CCC=C1c2ccccc2CCc2ccc(C(=O)NCCNC(=O)CCOCCOCCOCCOCCNC(=O)CCc3ccc4n3[B-](F)(F)[N+]3=C(c5ccc[nH]5)C=CC3=C4)cc21` [Amitriptyline-a-2-NB590], the “NanoBRET Fold Response” value in experiment [1] (tracer at 0.1μM) stood at 1.11; in experiment [1] (tracer at 1μM), 1.02; in experiment [2] (tracer at 0.1μM), 1.17; in experiment [2] (tracer at 1μM), 1.06; in experiment [3] (tracer at 1μM) it was 1.09; in experiment [5] (tracer at 0.1μM) it was 1.05. Also, the “NanoBRET Fold Response” value in experiment [5] (tracer at 1μM) is recorded as 0.96.

The values are drawn from PMC8151276, “An Integrated Approach toward NanoBRET Tracers for Analysis of GPCR Ligand Engagement” (Molecules, 2021).
